From patent publication US12600709B2, “Nonpeptide somatostatin type 5 receptor agonists and uses thereof” (Crinetics Pharmaceuticals, Inc., priority 2019, dated 2026)
Where two headings read alike, the source gives them in different places.

Tests used:
[1] = target: T1, human somatostatin receptor subtype 2 (Homo sapiens, UniProt P30874); assay: cAMP assay for SST2R (inhibition of cAMP in CHO-K1 cells); type: cell-based; settings: Table B; inhibition of cAMP via human SST2 receptor; read-out: SST2 potency
T1 construct: expressed in transfected cells
Procedure, shortened: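 Agonism read as decrease in NKH477 (1.6 μM)-stimulated cAMP: compounds applied 20 min, 37° C, with 0.2 mM IBMX, to CHO-K1 stably expressing human SSTR2. cAMP quantified in lysates by time-resolved fluorescence (HTRF kit, 1-24 h RT), standard-curve regression, then EC50.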

[2] = target: T2, human somatostatin receptor subtype 5 (Homo sapiens, UniProt P35346); assay: cAMP assay for SST5R (inhibition of cAMP in CHO-K1 cells); type: cell-based; settings: for EC50: inhibition of cAMP via human SST5 receptor, read-out: SST5 potency; for Fold selectivity for SST5 vs SST2: class symbols, SST5 receptor over SST2 receptor
T2 construct: expressed in transfected cells
Procedure, shortened: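 CHO-K1 cells stably expressing human SSTR5 were treated 20 min at 37 °C with compounds plus 1.6 μM NKH477 in HBSS, 0.5 mM HEPES pH 7.4, 0.1% BSA, 0.2 mM IBMX. Lysate cAMP measured by HTRF against a standard curve; EC50 from cAMP-versus-concentration plots.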

T1 sequence (P30874 whole entry): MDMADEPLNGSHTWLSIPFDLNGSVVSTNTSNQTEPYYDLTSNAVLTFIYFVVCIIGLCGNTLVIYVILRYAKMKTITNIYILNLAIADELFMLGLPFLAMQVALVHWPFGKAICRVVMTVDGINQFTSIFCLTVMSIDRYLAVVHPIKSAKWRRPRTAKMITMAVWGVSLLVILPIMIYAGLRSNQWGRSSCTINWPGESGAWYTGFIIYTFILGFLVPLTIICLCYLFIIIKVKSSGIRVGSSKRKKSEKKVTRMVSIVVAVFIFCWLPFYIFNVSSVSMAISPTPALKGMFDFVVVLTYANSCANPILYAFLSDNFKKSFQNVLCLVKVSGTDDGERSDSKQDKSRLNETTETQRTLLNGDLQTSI
T2 sequence (P35346 whole entry): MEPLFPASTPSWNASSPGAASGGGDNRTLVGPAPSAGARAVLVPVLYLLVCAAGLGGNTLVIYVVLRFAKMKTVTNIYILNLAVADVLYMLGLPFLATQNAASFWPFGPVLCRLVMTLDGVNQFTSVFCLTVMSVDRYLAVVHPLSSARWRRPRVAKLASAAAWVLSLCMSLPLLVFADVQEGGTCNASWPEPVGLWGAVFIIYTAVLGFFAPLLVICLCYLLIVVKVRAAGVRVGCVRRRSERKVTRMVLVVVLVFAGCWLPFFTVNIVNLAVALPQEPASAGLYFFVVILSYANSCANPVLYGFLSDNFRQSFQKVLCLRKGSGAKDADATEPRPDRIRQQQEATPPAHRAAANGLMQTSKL

| Compound | EC50 [1] [µM] | EC50 ([2]; Table A) [µM] | Fold selectivity for SST5 vs SST2 ([2]; Table B) | EC50 ([2]; Table B) [µM] |
| --- | --- | --- | --- | --- |
| COc1ncc(C(=O)N[C@@H](C)C2CC2)c(N2CC[C@](C)(N)C2)c1-c1cc(F)cc(C#N)c1 [1-153, 4-[(3S)-3-amino-3-methylpyrrolidin-1-yl]-5-(3-cyano-5-fluorophenyl)-N-[(1S)-1-cyclopropylethyl]-6-methoxypyridine-3-carboxamide] | 0.1 to 1 | < 0.01 | +++ (+++=>500) | < 0.01 |
| Cc1ncc(C(=O)NC2CCC(F)(F)CC2)c(N2CC[C@H](N)C2)c1-c1cc(F)cc(Cl)c1 [1-277, 4-[(3S)-3-aminopyrrolidin-1-yl]-5-(3-chloro-5-fluorophenyl)-N-(4,4-difluorocyclohexyl)-6-methylpyridine-3-carboxamide] | > 1 | < 0.01 | +++ (+++=>500) | < 0.01 |
| N#Cc1ncc(C(=O)NC2CCCCCC2)c(N2CC[C@H](N)C2)c1-c1cc(F)cc(F)c1 [1-73, 4-[(3S)-3-aminopyrrolidin-1-yl]-6-cyano-N-cycloheptyl-5-(3,5-difluorophenyl)pyridine-3-carboxamide] | > 1 | < 0.01 | +++ (+++=>500) | < 0.01 |
| CC(C)CNC(=O)c1cnc(C#N)c(-c2ccnc(C(F)(F)F)c2)c1N1CC[C@](C)(N)C1 [1-250, 4-[(3S)-3-amino-3-methylpyrrolidin-1-yl]-2-cyano-N-(2-methylpropyl)-2′-(trifluoromethyl)-[3,4′-bipyridine]-5-carboxamide] | > 1 | < 0.01 | +++ (+++=>500) | < 0.01 |
| CC(NC(=O)c1cnc(C#N)c(-c2cc(F)cc(F)c2)c1N1CC[C@](C)(N)C1)c1ccon1 (stereo partly drawn) [1-132, 4-[(3S)-3-amino-3-methylpyrrolidin-1-yl]-6-cyano-5-(3,5-difluorophenyl)-N-[1-(1,2-oxazol-3-yl)ethyl]pyridine-3-carboxamide] | > 1 | < 0.01 | +++ (+++=>500) | < 0.01 |
| Cc1cc(F)cc(-c2cncc(C(=O)NC(C3CC3)C3CC3)c2N2CC[C@](C)(N)C2)c1 [1-25, 4-[(3S)-3-amino-3-methylpyrrolidin-1-yl]-N-(dicyclopropylmethyl)-5-(3-fluoro-5-methylphenyl)pyridine-3-carboxamide] | 0.1 to 1 | < 0.01 | +++ (+++=>500) | < 0.01 |
| C[C@H](NC(=O)c1cnc(OCC2CC2)c(-c2cc(F)cc(F)c2)c1N1CC[C@](C)(N)C1)C1CC1 [1-178, 4-[(3S)-3-amino-3-methylpyrrolidin-1-yl]-N-[(1S)-1-cyclopropylethyl]-6-(cyclopropylmethoxy)-5-(3,5-difluorophenyl)pyridine-3-carboxamide] | 0.01 to 0.1 | < 0.01 | +++ (+++=>500) | < 0.01 |
| C[C@]1(N)CCN(c2c(C(=O)NC3CCC3)cnc(C#N)c2-c2cc(F)cc(F)c2)C1 [1-87, 4-[(3S)-3-amino-3-methylpyrrolidin-1-yl]-6-cyano-N-cyclobutyl-5-(3,5-difluorophenyl)pyridine-3-carboxamide] | 0.1 to 1 | < 0.01 | +++ (+++=>500) | < 0.01 |
| Cc1cccc2[nH]c(-c3cncc(C(=O)N4CC5CCC4CC5)c3N3CC[C@](C)(N)C3)nc12 [2-35, (3S)-1-(3-{2-azabicyclo[2.2.2]octane-2-carbonyl}-5-(4-methyl-1H-1,3-benzodiazol-2-yl)pyridin-4-yl)-3-methylpyrrolidin-3-amine] | 0.1 to 1 | < 0.01 | ++ (++=100 to 499) | < 0.01 |
| Cc1cc(F)cc(-c2cncc(C(=O)NC3CCC(F)(F)CC3)c2N2CC[C@](C)(N)C2)c1 [1-13, 4-[(3S)-3-amino-3-methylpyrrolidin-1-yl]-N-(4,4-difluorocyclohexyl)-5-(3-fluoro-5-methylphenyl)pyridine-3-carboxamide] | 0.1 to 1 | < 0.01 | +++ (+++=>500) | < 0.01 |
| C[C@]1(N)CCN(c2c(C(=O)NC3CCC(F)(F)CC3)cnc(C#N)c2-c2cc(F)cc(F)c2)C1 [1-48, 4-[(3S)-3-amino-3-methylpyrrolidin-1-yl]-6-cyano-N-(4,4-difluorocyclohexyl)-5-(3,5-difluorophenyl)pyridine-3-carboxamide] | 0.1 to 1 | < 0.01 | +++ (+++=>500) | < 0.01 |
| COc1ncc(C(=O)NCc2ccon2)c(N2CC[C@](C)(N)C2)c1-c1cc(F)cc(Cl)c1 [1-238, 4-[(3S)-3-amino-3-methylpyrrolidin-1-yl]-5-(3-chloro-5-fluorophenyl)-6-methoxy-N-[(1,2-oxazol-3-yl)methyl]pyridine-3-carboxamide] | 0.1 to 1 | < 0.01 | +++ (+++=>500) | < 0.01 |
| C[C@H](NC(=O)c1cncc(-c2cc(F)cc(F)c2)c1N1CC[C@](C)(N)C1)C(F)(F)F [1-54, 4-[(3S)-3-amino-3-methylpyrrolidin-1-yl]-5-(3,5-difluorophenyl)-N-[(2S)-1,1,1-trifluoropropan-2-yl]pyridine-3-carboxamide] | 0.1 to 1 | < 0.01 | ++ (++=100 to 499) | < 0.01 |
| Cc1ncc(C(=O)NC2CC(F)(F)C2)c(N2CC[C@](C)(N)C2)c1-c1cc(F)cc(OC(F)F)c1 [1-172, 4-[(3S)-3-amino-3-methylpyrrolidin-1-yl]-N-(3,3-difluorocyclobutyl)-5-[3-(difluoromethoxy)-5-fluorophenyl]-6-methylpyridine-3-carboxamide] | 0.1 to 1 | < 0.01 | +++ (+++=>500) | < 0.01 |
| C[C@]1(N)CCN(c2c(C(=O)Nc3ccccc3F)cncc2-c2ccc(F)c(C#N)c2)C1 [1-4, 4-[(3S)-3-amino-3-methylpyrrolidin-1-yl]-5-(3-cyano-4-fluorophenyl)-N-(2-fluorophenyl)pyridine-3-carboxamide] | 0.1 to 1 | < 0.01 | ++ (++=100 to 499) | < 0.01 |
| N[C@H]1CCN(c2c(C(=O)NC(C3CC3)C3CC3)cncc2-c2cc(F)cc(Cl)c2)C1 [1-61, 4-[(3S)-3-aminopyrrolidin-1-yl]-5-(3-chloro-5-fluorophenyl)-N-(dicyclopropylmethyl)pyridine-3-carboxamide] | > 1 | < 0.01 | +++ (+++=>500) | < 0.01 |
| Cc1ccc(F)c2[nH]c(-c3cncc(C(=O)N[C@@H](C)C(F)(F)F)c3N3CC[C@](C)(N)C3)nc12 [2-30, 4-[(3S)-3-amino-3-methylpyrrolidin-1-yl]-5-(7-fluoro-4-methyl-1H-1,3-benzodiazol-2-yl)-N-[(2S)-1,1,1-trifluoropropan-2-yl]pyridine-3-carboxamide] | 0.01 to 0.1 | < 0.01 | + (+=10 to 99) | < 0.01 |
| C[C@H](NC(=O)c1cncc(-c2cccc3c2OC(F)(F)O3)c1N1CC[C@](C)(N)C1)C1CC1 [1-163, 4-[(3S)-3-amino-3-methylpyrrolidin-1-yl]-N-[(1S)-1-cyclopropylethyl]-5-(2,2-difluoro-2H-1,3-benzodioxol-4-yl)pyridine-3-carboxamide] | 0.1 to 1 | < 0.01 | ++ (++=100 to 499) | < 0.01 |
| COc1ncc(C(=O)N[C@@H](C)C(F)(F)F)c(N2CC[C@H](N)C2)c1-c1cc(F)cc(Cl)c1 [1-283, 4-[(3S)-3-aminopyrrolidin-1-yl]-5-(3-chloro-5-fluorophenyl)-6-methoxy-N-[(2S)-1,1,1-trifluoropropan-2-yl]pyridine-3-carboxamide] | 0.1 to 1 | < 0.01 | +++ (+++=>500) | < 0.01 |
| COc1ncc(C(=O)N[C@@H](C)C2CC2)c(N2CC[C@](C)(N)C2)c1-c1cc(F)cc(C(F)(F)F)c1 [1-164, 4-[(3S)-3-amino-3-methylpyrrolidin-1-yl]-N-[(1S)-1-cyclopropylethyl]-5-[3-fluoro-5-(trifluoromethyl)phenyl]-6-methoxypyridine-3-carboxamide] | 0.1 to 1 | < 0.01 | +++ (+++=>500) | < 0.01 |
| Cc1ncc(C(=O)N[C@@H](C)C2CC2)c(N2CC[C@](C)(N)C2)c1-c1cc(F)cc(OC(F)F)c1 [1-173, 4-[(3S)-3-amino-3-methylpyrrolidin-1-yl]-N-[(1S)-1-cyclopropylethyl]-5-[3-(difluoromethoxy)-5-fluorophenyl]-6-methylpyridine-3-carboxamide] | 0.1 to 1 | < 0.01 | ++ (++=100 to 499) | < 0.01 |
| C[C@H](NC(=O)c1cnc(C#N)c(-c2cccc(OC(F)(F)F)c2)c1N1CC[C@](C)(N)C1)C1CC1 [1-127, 4-[(3S)-3-amino-3-methylpyrrolidin-1-yl]-6-cyano-N-[(1S)-1-cyclopropylethyl]-5-[3-(trifluoromethoxy)phenyl]pyridine-3-carboxamide] | 0.1 to 1 | < 0.01 | +++ (+++=>500) | < 0.01 |
